From patent publication US5763435A, “Sulfate conjugates of ursodeoxycholic acid, and their beneficial use in inflammatory disorders” (priority 1995, dated 1998) come the findings set out here.

The subject of series [1] is Principal Bile Acids in Jejunum. Put plainly: Bile acid composition of jejunum after oral administration (GC-MS). It counts as in vivo, Sprague-Dawley rats. To be noted: for UDCA mass in jejunum / Chenodeoxycholic acid mass in jejunum / Cholic acid mass in jejunum / Cholic acid percent of jejunal bile acids / Deoxycholic acid mass in jejunum / Deoxycholic acid percent of jejunal bile acids / Lithocholic acid mass in jejunum / Lithocholic acid percent of jejunal bile acids / Total bile acid mass in jejunum / UDCA percent of jejunal bile acids / Δ^22-UDCA mass in jejunum / Δ^22-UDCA percent of jejunal bile acids / Δ^22-β-Muricholic acid mass in jejunum / Δ^22-ω-Muricholic acid mass in jejunum / α-Muricholic acid mass in jejunum / β-Muricholic acid mass in jejunum / ω-Muricholic acid mass in jejunum: oral gavage 250 mg/day, 4 days, mean ± SEM; for UDCA mass in jejunum: 24 hours after final dose. As for the experimental part:
(§1) Male Sprague-Dawley rats (Harlan Sprague-Dawley, Inc., Indianapolis, Ind.), weighing 210-290 g, were maintained on a 12-hour light-dark cycle and fed standard laboratory chow ad libitum for 3 days. The animals were then transferred to metabolic cages in which they were housed individually and fed the same diet. UDCA, UDCA 3-sulfate, UDCA 7-sulfate, and UDCA 3,7-disulfate were administered by gavage at a dose of 250 mg/day for 4 consecutive days. Each group comprised 3-6 rats. Body weights of the animals were measured each day. On day 5, the animals were killed by exsanguination under ether anesthesia. Plasma was collected and frozen at -20° C. The liver was removed, rinsed in normal saline, and flash-frozen in liquid nitrogen. Urine and feces were collected every 24 hours and frozen at -20° C. All animals received humane care in compliance with the "Guide for the Care and Use of Laboratory Animals" prepared by the National Academy of Sciences (National Institutes of Health publication no. 86-23, revised in 1985).
(§2) Intestinal contents were weighed and dissected into small pieces. In each group, feces (100 mg) from all animals were pooled on day 4 of the study and then ground into a fine paste. All samples were sonicated and sequentially refluxed in 80% methanol for 2 hours and chloroform/methanol (1:1) for 1 hour. Samples were taken to dryness, and the dried extracts were resuspended in 80% methanol (20 mL). Fractions of the methanolic extract (1/40 of intestinal contents and 1/20 of feces samples) were removed and the internal standard nordeoxycholic acid (10 μg) was added. This extract was diluted with 0.01 mol/L acetic acid (20 mL) and passed first through a column of Lipidex 1000 (bed size, 4×1 cm; Packard Instrument Co., Groningen, The Netherlands) and then through a Bond-Elut C18, cartridge (Analytichem, Harbor City, Calif.). Bile acids were recovered by elution of the Lipidex 1000 column and the Bond-Elut cartridge with methanol (20 mL and 5 mL, respectively), and the combined extracts were taken to dryness. Unconjugated bile acids were isolated and separated from neutral sterol and conjugated bile acids by lipophilic anion exchange chromatography on diethylaminohydroxypropyl Sephadex LH-20 (Lipidex-DEAP; Package Instrument Co.). Recovery of unconjugated bile acids was achieved by elution with 0.1 mol/L acetic acid in 72% ethanol (7 mL) followed by evaporation of the solvents. Total conjugated bile acids were recovered with 9 mL of 0.3 mol/L acetic acid in 72% ethanol, pH 9.6. Salts were removed by passage through a Bond-Elut C18 cartridge after addition of nordeoxycholic acid (10 μg), and conjugated bile acids were recovered by elution with 5 mL of methanol. Solvolysis was performed in a mixture of methanol (1 mL), distilled tetrahydrofuran (9 mL), and 1 mol/L trifluoracetic acid in dioxane (0.1 mL) and heated to 45° C for 2 hours. After solvolysis, unconjugated bile acids were isolated by chromatography on Lipidex-DEAP. Methyl ester derivatives were prepared by dissolving the sample in methanol (0.3 mL) and reacting with 2.7 mL of freshly distilled ethereal diazomethane. After evaporation of the reagents, the methyl ester derivatives were converted to trimethylsilyl ethers by the addition of […] of Tri-Sil reagent (Pierce Chemicals, Rockford, Ill.). A column of Lipidex 5000 (Packard Instrument Co.) was used to remove derivatizing reagents and to purify the sample.
Samples of liver (100 mg) were ground to a fine paste, and bile acids were extracted by reflux and passage through a column of Lipidex 1000 as described above for intestinal contents and feces. Group separation of bile acids, according to their mode of conjugation was achieved by lipophilic anion-exchange chromatography. […]

Another series concerns fecal bile acids. Put plainly: Fecal bile acid excretion after oral administration. It is filed as in vivo, Sprague-Dawley rats. To be noted: for Total fecal bile acid excretion: pooled feces day 4. As for the experimental part:
as §1, §2
GC-MS analysis was performed using a Finnigan 4635 mass spectrometer (Finnigan Inc., San Jose, Calif.) that housed an identical gas chromatography column operated under the same conditions. Electron ionization (70 eV) mass spectra were recorded over the mass range of 50-800 daltons by repetitive scanning of the eluting components. […]

Take `C[C@H](CCC(=O)O)[C@H]1CC[C@H]2[C@@H]3[C@@H](OS(=O)(=O)O)C[C@@H]4C[C@H](O)CC[C@]4(C)[C@H]3CC[C@]12C` [UDCA-7S, ursodeoxycholic acid 7-sulfate]: the “UDCA mass in jejunum” value in series [1] (listed as UDCA 7-SULFATE) was 1.09 mg. In addition, the “UDCA mass in jejunum” value in series [1] (listed as UDCA 7-sulfate) stood at 1.09 ± 0.34 mg. Further, in series [1], the “Chenodeoxycholic acid mass in jejunum” value is given as 0.26 mg, the “Cholic acid mass in jejunum” value stood at 15.78 mg, the “Cholic acid percent of jejunal bile acids” value came out at 69.0% and the “Deoxycholic acid mass in jejunum” value was 0.76 mg. In addition, in series [1], the “Deoxycholic acid percent of jejunal bile acids” value (from here on “Deoxycholic acid percent”) came out at 3.3%, the “Lithocholic acid mass in jejunum” value is recorded as 0.01 mg, the “Lithocholic acid percent of jejunal bile acids” value (“Lithocholic acid percent” for short) worked out at 0.1% and the “Total bile acid mass in jejunum” value is 22.91 mg. For the same compound, in series [1], the “UDCA percent of jejunal bile acids” value is reported as 4.7%, the “Δ^22-UDCA mass in jejunum” value came to 0.70 mg, the “Δ^22-UDCA percent of jejunal bile acids” value was determined as 3.1% and the “Δ^22-β-Muricholic acid mass in jejunum” value was 1.49 mg. In series [1], the “Δ^22-ω-Muricholic acid mass in jejunum” value is listed as 0.26 mg, the “α-Muricholic acid mass in jejunum” value is 0.04 mg, the “β-Muricholic acid mass in jejunum” value is 2.21 mg and the “ω-Muricholic acid mass in jejunum” value is listed as 0.31 mg. In addition, in the series with fecal bile acids, the “Fecal concentration of total UDCA (in words)” value is “markedly greater than that found in the feces of animals administered UDCA or UDCA 3-sulfate”, the “Form of UDCA excreted in feces” value was “excreted in feces virtually unchanged” and the “Total fecal bile acid excretion” value was found to be 12.65 mg/g feces. Besides, the “Fecal lithocholate/deoxycholate ratio (in words)” value with fecal bile acids (vs control) is listed as “no change in the lithocholate/deoxycholate ratio”.

Take `C[C@H](CCC(=O)O)[C@H]1CC[C@H]2[C@@H]3[C@@H](OS(=O)(=O)O)C[C@@H]4C[C@H](OS(=O)(=O)O)CC[C@]4(C)[C@H]3CC[C@]12C` [UDCA-DS, ursodeoxycholic acid 3,7-disulfate]: the “UDCA mass in jejunum” value in series [1] (listed as UDCA 3,7-SULFATE) was 0.21 mg. In addition, in series [1] (listed as UDCA 3,7-disulfate), the “UDCA mass in jejunum” value worked out at 0.21 ± 0.07 mg. Also, in series [1], the “Chenodeoxycholic acid mass in jejunum” value came out at 0.12 mg, the “Cholic acid mass in jejunum” value came out at 6.78 mg, the “Cholic acid percent of jejunal bile acids” value is given as 66.0% and the “Deoxycholic acid mass in jejunum” value is reported as 0.5 mg. Also, in series [1], the “Deoxycholic acid percent” value is given as 5.2%, the “Lithocholic acid percent” value is 0%, the “Total bile acid mass in jejunum” value is on record as 10.24 mg and the “UDCA percent of jejunal bile acids” value is 2.0%. In series [1], the “Δ^22-UDCA mass in jejunum” value is 0.21 mg, the “Δ^22-UDCA percent of jejunal bile acids” value is 2.1%, the “Δ^22-β-Muricholic acid mass in jejunum” value is 0.34 mg and the “Δ^22-ω-Muricholic acid mass in jejunum” value was 0.12 mg. For the same compound, in series [1], the “β-Muricholic acid mass in jejunum” value worked out at 1.70 mg and the “ω-Muricholic acid mass in jejunum” value amounted to 0.24 mg. In addition, in the series on fecal bile acids, the “Fecal concentration of total UDCA (in words)” value is “markedly greater than that found in the feces of animals administered UDCA or UDCA 3-sulfate”, the “Form of UDCA excreted in feces” value is “excreted in feces virtually unchanged” and the “Total fecal bile acid excretion” value is recorded as 10.88 mg/g feces. For the same compound, the “Fecal lithocholate/deoxycholate ratio (in words)” value in the series on fecal bile acids (vs control) was “no change in the lithocholate/deoxycholate ratio”.

Regarding `C[C@H](CCC(=O)O)[C@H]1CC[C@H]2[C@@H]3[C@@H](O)C[C@@H]4C[C@H](OS(=O)(=O)O)CC[C@]4(C)[C@H]3CC[C@]12C` [UDCA-3S, ursodeoxycholic acid 3-sulfate], the “Δ^22 UDCA in jejunum (in words)” value in series [1] (oral) is “detected in large proportions and amounts”. Also, the “UDCA mass in jejunum” value in series [1] (listed as UDCA 3-SULFATE) is listed as 3.67 mg. For the same compound, in series [1] (listed as UDCA 3-sulfate), the “UDCA mass in jejunum” value was 3.67 ± 0.45 mg. Also, in series [1], the “Chenodeoxycholic acid mass in jejunum” value is reported as 0.43 mg, the “Cholic acid mass in jejunum” value is reported as 8.49 mg, the “Cholic acid percent of jejunal bile acids” value was 37.7% and the “Deoxycholic acid mass in jejunum” value turned out to be 1.96 mg. Besides, in series [1], the “Deoxycholic acid percent” value worked out at 8.4%, the “Lithocholic acid mass in jejunum” value is recorded as 0.07 mg, the “Lithocholic acid percent” value was 0.3% and the “Total bile acid mass in jejunum” value is given as 22.57 mg. In addition, in series [1], the “UDCA percent of jejunal bile acids” value was 16.4%, the “Δ^22-UDCA mass in jejunum” value is on record as 2.04 mg, the “Δ^22-UDCA percent of jejunal bile acids” value came out at 9.2% and the “Δ^22-β-Muricholic acid mass in jejunum” value is given as 2.09 mg. Further, in series [1], the “Δ^22-ω-Muricholic acid mass in jejunum” value was determined as 0.24 mg, the “α-Muricholic acid mass in jejunum” value is recorded as 0.18 mg, the “β-Muricholic acid mass in jejunum” value worked out at 3.02 mg and the “ω-Muricholic acid mass in jejunum” value is 0.37 mg. For the same compound, in series [1] (oral, vs control), the “Change in proportion of cholic acid in jejunum (in words)” value is “decrease (P=0.05) in the proportion of cholic acid but to a lesser extent than UDCA”. The “Conjugation pattern of UDCA in jejunum” value in series [1] (oral, anion-exchange chromatography) was “substantial proportions of amidated UDCA”. Also, in the series with fecal bile acids, the “Increase of fecal lithocholic acid/deoxycholic acid ratio vs normal rat feces” value was 11 fold and the “Total fecal bile acid excretion” value came out at 10.70 mg/g feces. In the series with fecal bile acids (vs control), the “Fecal lithocholate/deoxycholate ratio (in words)” value is given as “markedly increased” and the “Fecal lithocholic acid excretion (in words)” value is recorded as “large increase in the fecal lithocholic acid concentration”.
